Assay results published in publication PMC7795597 (2020).

Legend:
[1] = test system: kit* (DNA, G4) GGCGAGGAGGGGCGTGGCCGGC; assay: SPR steady state; settings: 150 mM K+; 10 mM Tris, pH 7.5, 25 °C; apparent; one-site plus non-specific fit; DMSO < 1%
[2] = test system: kit*5AP (DNA, G4, 2-aminopurine at 5 (replaces A)) GGCGAGGAGGGGCGTGGCCGGC; assay: 2-aminopurine fluorescence titration; settings: 150 mM K+; 10 mM Tris, pH 7.5, 25 °C; apparent; 0.5 µM DNA, single-site fit
[3] = test system: kit* (DNA, G4) GGCGAGGAGGGGCGTGGCCGGC; assay: CD titration; settings: K+ (150 mM in Methods, 100 mM in Figure S3 legend); 10 mM Tris, pH 7.5, 25 °C; 4 µM DNA
[4] = test system: kit2-kit* (DNA, G4) CGGGCGGGCGCGAGGGAGGGGAGGCGAGGAGGGGCGTGGCCGGC; assay: CD titration; settings: K+ (150 mM in Methods, 100 mM in Figure S3 legend); 10 mM Tris, pH 7.5, 25 °C; 4 µM DNA
[5] = test system: kit*8AP (DNA, G4, 2-aminopurine at 8 (replaces A)) GGCGAGGAGGGGCGTGGCCGGC; assay: 2-aminopurine fluorescence titration; settings: 150 mM K+; 10 mM Tris, pH 7.5, 25 °C; apparent; 0.5 µM DNA, single-site fit

C(=NNC1=NCCN1)c1cccc2cc3cccc(C=NNC4=NCCN4)c3cc12
Kd [1]: 6710 ± 1260 nM | Kd [2]: 2240 ± 170 nM | binding [3]: yes | binding [4]: yes | Kd [5]: 1780 ± 150 nM

NCCCC[C@H](N)C(=O)NCCC(=O)Nc1cccc2c1C(=O)c1cccc(NC(=O)CCNC(=O)[C@@H](N)CCCCN)c1C2=O
Kd [1]: 510 ± 90 nM | Kd [2]: 320 ± 20 nM | binding [3]: yes | binding [4]: yes | Kd [5]: 310 ± 20 nM
